From publication PMC7385131, “Mechanisms of activation and desensitization of full-length glycine receptor in lipid nanodiscs” (Nature Communications, 2020) come the findings set out here.

Data set [1] concerns the target T1, zebrafish GlyRα1 (full-length glycine receptor α1) (Danio rerio, UniProt O93430).
T1 construct: gene glra1; homopentamer in asolectin/MSP1E3D1 nanodiscs
T1 sequence (O93430 1-444): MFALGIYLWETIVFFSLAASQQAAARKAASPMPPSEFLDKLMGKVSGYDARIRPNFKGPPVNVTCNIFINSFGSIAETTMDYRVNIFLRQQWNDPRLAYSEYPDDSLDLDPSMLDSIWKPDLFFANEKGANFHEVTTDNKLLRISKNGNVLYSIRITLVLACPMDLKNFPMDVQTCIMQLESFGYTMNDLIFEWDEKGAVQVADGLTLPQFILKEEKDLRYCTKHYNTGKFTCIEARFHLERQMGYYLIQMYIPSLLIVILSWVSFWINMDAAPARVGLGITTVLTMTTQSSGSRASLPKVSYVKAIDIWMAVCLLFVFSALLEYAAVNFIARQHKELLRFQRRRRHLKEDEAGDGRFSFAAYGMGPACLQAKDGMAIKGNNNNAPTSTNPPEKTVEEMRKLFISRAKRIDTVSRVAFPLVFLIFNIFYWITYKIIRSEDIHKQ
Description: cryo-EM structure in lipid nanodiscs ([…] Å); TEVC in oocytes. The format is binding.

The target of data set [2] is T1, zebrafish GlyRα1 (full-length glycine receptor α1). Description: cryo-EM structure in lipid nanodiscs ([…] Å) with glycine; TEVC block in oocytes. The format is binding.
Data set [3] deals with the molecule itself. As to the kind of experiment: cryo-EM structure; GlyR in asolectin nanodiscs (MSP1E3D1), ~0.1 mg/ml, buffer A (200 mM NaCl, 20 mM HEPES pH 8.0); no ligand, 5 mM glycine, 5 mM glycine + 3 mM picrotoxin, 1 mM glycine + 0.5 uM ivermectin, or 0.1 mM glycine + 30 uM ivermectin; C5 symmetry imposed.

For the molecule `NCC(=O)O` [Gly, glycine], the “cryo-EM structure in lipid nanodiscs (3.47 Å); TEVC in oocytes” value in data set [1] is listed as 3D reconstructions reveal an additional small density in the canonical neurotransmitter-binding pocket wedged at the subunit interface in the ECD.

In the case of `C=C(C)[C@@H]1[C@H]2OC(=O)[C@@H]1[C@]1(O)C[C@H]3OC34C(=O)O[C@H]2[C@@]41C.CC(C)(O)[C@@H]1[C@H]2OC(=O)[C@@H]1[C@]1(O)C[C@H]3OC34C(=O)O[C@H]2[C@@]41C` (stereo partly drawn) [PTX, picrotoxin], the “cryo-EM structure in lipid nanodiscs (3.51 Å) with glycine; TEVC block in oocyte” value in data set [2] is “an additional density was seen in the pore at the mid-level of M2 nestled between Gly2′ and Leu9′”.

B1: full-length zebrafish glycine receptor α1 (GlyRα1) (receptor, UniProt O93430 25-444, looked up)
chain: ARKAASPMPPSEFLDKLMGKVSGYDARIRPNFKGPPVNVTCNIFINSFGSIAETTMDYRVNIFLRQQWNDPRLAYSEYPDDSLDLDPSMLDSIWKPDLFFANEKGANFHEVTTDNKLLRISKNGNVLYSIRITLVLACPMDLKNFPMDVQTCIMQLESFGYTMNDLIFEWDEKGAVQVADGLTLPQFILKEEKDLRYCTKHYNTGKFTCIEARFHLERQMGYYLIQMYIPSLLIVILSWVSFWINMDAAPARVGLGITTVLTMTTQSSGSRASLPKVSYVKAIDIWMAVCLLFVFSALLEYAAVNFIARQHKELLRFQRRRRHLKEDEAGDGRFSFAAYGMGPACLQAKDGMAIKGNNNNAPTSTNPPEKTVEEMRKLFISRAKRIDTVSRVAFPLVFLIFNIFYWITYKIIRSEDIHKQ
modifications: N-glycan at Asn62
notes: Glycine receptor subunit alpha-1, zebrafish, full-length gene, codon-optimized; residues numbered as in UniProt O93430; Homopentamer; the model begins at Pro31; No thrombin cleavage is told; also called full-length glycine α1 receptor; GlyR–Apo; source: Sf9 cells (baculovirus, pFastBac1), purified (TALON, Superose 6), reconstituted into asolectin nanodiscs with MSP1E3D1
B1: the “stoichiometry N” value in data set [3] was 5.
